Data taken from patent publication US6197774A, “Pyrimidine derivative” (Otsuka Pharmaceutical Co., Ltd., priority 1997, dated 2001).

Assays:
contact hypersensitivity = assay: Contact hypersensitivity model in mouse (atopic dermatitis model); format: in vivo; conditions: po, 30 minutes before causal induction, 24 hours, read-out: Control % (intumescence of the pinna, untreated = 100); for response vs control in vivo at 20 mg/kg: 20 mg/Kg p.o.; for response vs control in vivo at 3 mg/kg: 3 mg/Kg p.o.
Protocol: [Contact hypersensitivity model in mouse (Atopic dermatisis model)]
Test was conducted by referring to the method as described in "HIFU (a Japanese journal of dermatology)" Vol. 35, Supplemental Issue No. 15, pp. 96-106, published on March 1993.
CBA/J strain mice of 6-8 week age were used as the test animals (6-8 mice in one group). The mouse was sensitized by coating 150 μl of 5% of picryl chloride [dissolved in a mixture of acetone with olive oil (1:4)] on the shaved portion of skin in the back of mouse. […] 24 Hours after the causal induction, the effect for inhibiting contact hypersensitivity performed by the test compounds were evaluated by referring to the action for inhibiting intumescence of the pinna as an indication. The test compound was orally administered 30 minutes before the causal induction.
The following compounds were used for the test.
1) Compounds of the Present Invention:
(Dosage: 20 mg/Kg p.o., which is 7-10 times larger amount of dosages for compounds of the present invention)
The value obtained from the sensitization test without administration of the test compound was referred to as 100, and by comparing with the values obtained from the sensitization test with administration of the test compound was referred to "% control" values.

late asthmatic response = assay: Model experiment of asthma in guinea pigs (inhibition of late asthmatic response); format: in vivo, guinea pig; conditions: control 112 ± 17.8
Protocol: [Model experiment of asthma in guinea pigs. (Inhibition of late asthmatic response)]
Hartley strain female guinea pigs (SLC) having the body weight of about 350 g were used and 50 mg/Kg of cyclophosphamide (mfd. by Sigma Chemical Co.) was injected intraperitoneally. 2 Days after this pretreatment by injection, 1 mg of egg albumin (mfd. by Sigma Chemical Co.) and 100 mg of aluminum hydroxide (Wako Pure Chemical Industries Co., Ltd.) were injected intraperitoneally for sensitization. 3 Weeks after the sensitization, 10 μg of egg albumin and 100 mg of aluminum hydroxide were injected intraperitoneally for booster sensitization. 6 Weeks after the primary sensitization, asthma attach was induced by inhalation and exposure to egg albumin (4 mg/ml) by using a nebulizer (NE-U12: mfd. by Omron Corp.). The asthma reaction was determined by use of a body-plethysmography (using system developed by Uchida lecturer in internal department for respiratory organs at Tsukuba University; air-resist tube, respiratory amplifier and differential pressure transducer (mfd. by Nihon Koden); and osciloscope (mfd. by Iwasaki Tsushin)), so as to determine a […] of specific airway conductance (sGaw) under the condition without anesthesia. The sGaw value just before the administration of test comopound was measured and the value is referred to as 100. Test compound was suspended in 1% HPMC (hydroxymethylpropylcellulose mfd. by Shinetsu Chemical), and was administered orally 30 minutes before the exposure with the antigen. Then, sGaw value was measured in each points until 7 hours after the exposure with the antigen.

[1] = test system: formation of NO in cell strain RAW 264.7; assay: Activity for inhibiting the formation of NO (LPS-stimulated RAW 264.7 cells, Griess reagent); format: cell-based; conditions: Mus musculus, RAW264.7, 1 × 10^-6 M, LPS 100 ng/ml, 24 hours, read-out: Ratio of formed amount of NO (reference culture medium = 100)
Protocol: [Evaluation test of activity for inhibiting the formation of NO]
Pharmacological tests of pyrimidine derivatives obtained in Examples 1, 12, 14, 19, 22, 24, 29 and 42 used as test compounds were conducted as follows.
Preparation of culture media and method of cell culture were conducted in accordance with those described in J. Biol. Chem., Vol. 269, No. 1, pp. 711-715, (1994), and determination of formed amount of NO was conducted in accordance with the method described in Anal. Biochem., Vol. 126, pp. 131-138, (1982), respectively.
(1) Cell Culture and Inducible Synthesis of NO in the Cells by Stimulation with Lipopolysaccharide (LPS)
Cell strain RAW 264.7 (ATCC) derived from the macrophage of mouse was placed on each one of the wells on a microplate having 24-wells so as to put the cells in an amount of 1×10^5 cells/U (well). The cells were incubated for 24 hours in a phenol red free-RPMI-1640 culture medium (mfd. by GIBCO) to which 10% of fetal bovine serum, 100 U/ml of penicillin (mfd. by Dainippon Pharmaceutical Co., Ltd.) and 100 μg/ml of streptomycin (mfd. by Dainippon Pharmaceutical Co., Ltd.) were added.
Next, the reference culture medium was prepared by adding 2 mM of L-arginine (mfd. by Wako Pure Chemical Industries, Ltd.), 10 μM/ml of tetrahydrobiopterin (mfd. by ALEXIS) and 100 ng/ml of lipopolysaccharide (LPS)(mfd. by Sigma Chemical Co.) to a phenol red free-RPMI-1640 culture medium. While, the reference culture medium without containing LPS was used as the blanc culture medium.
On the other hand, the test culture medium, containing the test compound was prepared by adding 0.2% of the test compounds dissolved in dimethyl sulfoxide (DMSO) to the reference culture medium to adjust the final concentration of the test compound to 1×10^-6 M.
Each one of the blank culture medium, reference culture medium and test culture medium containing the test compound was added, respectively to the well on the micro-plate where the above-mentioned cell strain RAW 264.7 was placed, and was incubated for 24 hours.
(2) Measurement of the Amount of Formed NO
Quantitative measurement of NO cannot be made directly, due to its unstability. Therefore, the amount of NO is measured indirectly, thus by forming nitrous acid ion (hereunder referred to as NO2^-) which is stable product derived from NO by use of Griess reagent [consisting of 1% of sulfanylamide and 0.1% of sulfuric acid solution containing 0.1% N-(1-naphthyl)ethylenediamine dihydrochloride], and measure the amount of NO2^-.
Into the supernatant of each one of the culture media was admixed with the same amount of Griess reagent respectively, and subjected to reaction at room temperature for 10 minutes, then the optical absorbance at 540 nm of the thus reacted culture medium was measured. While, the optical absorbance of sodium nitrite solution diluted with the culture medium was referred to as the standard value, and the amount of NO2^- formed in each one of these incubated culture media was measured. The amounts of NO2^- formed in the reference culture medium and the test culture medium were corrected by using the value of formed amount of NO2^- in the blanc culture medium.
On the basis of that the ratio of amounts of NO2^- formed in the reference culture medium and that of formed in the test culture medium is corresponding to the ratio of amount of NO formed in the reference culture medium and that of formed in the test culture medium. Thus the amount of NO2^- formed in the reference culture medium is referred to as the value of 100, and the value of amount of NO2^- formed in the test culture medium is referred to as amount of NO formed in the test culture medium.

[2] = Toxicity of compound against the cell strain RAW 264.7 (MTT); format: cell-based; conditions: mouse, raw 264.7 cells, 1 × 10^-6 M, read-out: Ratio of optical absorbance
Protocol: [Toxicity test (Toxicity of compound against the cell strain RAW 264.7)]
Test was conducted in accordance with the method as described in J. Immunol. Methods, Vol. 94, pp. 57-68, (1986). Cell strain RAW 264.7 derived from the macrophage of mouse was incubated similarly as in the method of Test Example 1(1). After that, MTT reagent (5 mg/ml) in 1/10 amount of the culture medium was added to the cells, and incubated for 4 hours. The supernatant of culture medium was taken off, then the cells were collected by using 1% SDS solution and the optical absorbance at 570-630 nm of the SDS solution was measured.

Q: For Oc1cc(C2CC2)nc2c(-c3ccc(Sc4ccccc4)cc3)cnn12 [(1), 7-Hydroxy-5-cyclopropyl-3-(4-phenylthiophenyl)pyrazolo[1,5-a]pyrimidine], which response vs control in vivo at 20 mg/kg (contact hypersensitivity) is on record?
A: 99%

Q: With Cc1cc(O)n2ncc(-c3ccc(Sc4ccccc4)cc3)c2n1 [(2), 7-Hydroxy-5-methyl-3-(4-phenylthiophenyl)pyrazolo[1,5-a]pyrimidine] as the molecule, how does the response vs control in vivo at 20 mg/kg (contact hypersensitivity) read?
A: 90%

Q: Which response vs control in vivo at 20 mg/kg (contact hypersensitivity) does the source give for COCc1nn2c(O)ccnc2c1-c1ccc(Sc2ccccc2)cc1 [(3), 7-Hydroxy-2-methoxymethyl-3-(4-phenylthiophenyl)pyrazolo[1,5-a]pyrimidine] here?
A: 104%

Q: For Oc1cc(CCl)nc2cc(-c3ccccc3)nn12 [(4), 7-Hydroxy-5-chloromethyl-2-phenylpyrazolo[1,5-a]pyrimidine], which response vs control in vivo at 20 mg/kg (contact hypersensitivity) is on record?
A: 103%

Q: For Oc1ccnc2c(-c3cccc(C(F)(F)F)c3)cnn12 [(5), 7-Hydroxy-3-(3-trifluoromethylphenyl)pyrazolo [1,5-a]pyrimidine], which response vs control in vivo at 20 mg/kg (contact hypersensitivity) is on record?
A: 90.4%

Q: For COc1cc(-c2c(-c3ccccn3)nn3c(O)cc(C)nc23)ccc1Sc1ccccc1 [(6), 7-Hydroxy-5-methyl-3-(3-methoxy-4-phenylthiophenyl)-2-(2-pyridyl)pyrazolo[1,5-a]pyrimidine], which response vs control in vivo at 20 mg/kg (contact hypersensitivity) is on record?
A: 94.7%

Q: Which response vs control in vivo at 20 mg/kg (contact hypersensitivity) does the source give for Oc1cc(CCl)nc2cc(-c3ccc(Sc4ccccc4)cc3)nn12 [(7), 7-Hydroxy-5-chloromethyl-2-(4-phenylthiophenyl)pyrazolo[1,5-a]pyrimidine] here?
A: 113%

Q: For Oc1ccnc2c(-c3ccc(Sc4ccccc4)cc3)cnn12 [(8), 7-Hydroxy-3-(4-phenylthiophenyl)pyrazolo[1,5-a]pyrimidine], which “AUC (4-7 hours) of sGaw reaction” value (late asthmatic response; 39 mg/Kg (so in the source) orally 30 minutes before antigen, 3 animals) is on record?
A: 127.9 ± 45.4

Q: And the response vs control in vivo at 20 mg/kg (contact hypersensitivity)?
A: 100%

Q: Which activity at 1 µM [1] does the source give for O=c1cc(COc2ccccc2)[nH]c2c(-c3ccc(Sc4ccccc4)cc3)cnn12 [Example 12, 4,7-dihydro-7-oxo-5-phenoxymethyl-3-(4-phenylthiophenyl)pyrazolo[1,5-a]pyrimidine] here?
A: 67%

Q: What about the viability at 1 µM [2] of the same molecule?
A: 103%

Q: Which activity at 1 µM [1] does the source give for COCCOCc1cc(=O)n2ncc(-c3ccc(Sc4ccccc4)cc3)c2[nH]1 [Example 14, 4,7-dihydro-5-(2-methoxyethoxymethyl)-7-oxo-3-(4-phenylthiophenyl)pyrazolo[1,5-a]pyrimidine] here?
A: 64.4%

Q: And the viability at 1 µM [2]?
A: 94.2%

Q: For CC(C)(C)OCCOCc1cc(=O)n2ncc(-c3ccc(Sc4ccccc4)cc3)c2[nH]1 [Example 15, 5-(2-t-butoxyethoxymethyl)-4,7-dihydro-7-oxo-3-(4-phenylthiophenyl)pyrazolo[1,5-a]pyrimidine], which response vs control in vivo at 3 mg/kg (contact hypersensitivity) is on record?
A: 46.3%

Q: Which activity at 1 µM [1] does the source give for O=c1cc(C2CCCO2)[nH]c2c(-c3ccc(Sc4ccccc4)cc3)cnn12 (stereo not drawn) [Example 19, 4,7-dihydro-7-oxo-3-(4-phenylthiophenyl)-5-(tetrahydrofuran-2-yl)pyrazolo[1,5-a]pyrimidine] here?
A: 63.1%

Q: And the response vs control in vivo at 3 mg/kg (contact hypersensitivity)?
A: 44.7%

Q: For COCCc1cc(=O)n2ncc(-c3ccc(Sc4ccccc4)cc3)c2[nH]1 [Example 22, 4,7-dihydro-5-(2-methoxyethyl)-7-oxo-3-(4-phenylthiophenyl)pyrazolo[1,5-a]pyrimidine], which activity at 1 µM [1] is on record?
A: 60.3%

Q: What about the viability at 1 µM [2] of the same molecule?
A: 101%

Q: With COC(OC)c1cc(=O)n2ncc(-c3ccc(Sc4ccccc4)cc3)c2[nH]1 [Example 24, 4,7-dihydro-5-dimethoxymethyl-7-oxo-3-(4-phenylthiophenyl)pyrazolo[1,5-a]pyrimidine] as the molecule, how does the activity at 1 µM [1] read?
A: 67.3%

Q: And the viability at 1 µM [2]?
A: 108%

Q: With CSCc1cc(=O)n2ncc(-c3ccc(Sc4ccccc4)cc3)c2[nH]1 [Example 29, 4,7-dihydro-5-methylthiomethyl-7-oxo-3-(4-phenylthiophenyl)pyrazolo[1,5-a]pyrimidine] as the molecule, how does the activity at 1 µM [1] read?
A: 52.2%

Q: And the viability at 1 µM [2]?
A: 89.7%

Q: With COCc1cc(=O)n2nc(COC)c(-c3ccc(Sc4ccccc4)cc3)c2[nH]1 [Example 42, 2,5-bis(methoxymethyl)-4,7-dihydro-7-oxo-3-(4-phenylthiophenyl)pyrazolo[1,5-a]-pyrimidine] as the molecule, how does the activity at 1 µM [1] read?
A: 55.4%

Q: For C[C@]12C=CC(=O)C=C1CC[C@@H]1[C@@H]2[C@@H](O)C[C@@]2(C)[C@H]1CC[C@]2(O)C(=O)CO [Prednizolone], which “AUC (4-7 hours) of sGaw reaction” value (late asthmatic response; 30 mg/Kg orally 30 minutes before antigen, 8 animals) is on record?
A: 15.6 ± 3.5
